According to patent US20220280661A1, “GLUCOCORTICOID RECEPTOR RADIOLIGANDS AND METHODS FOR THEIR PREPARATION AND USE” (The Regents of the University of California, priority 2019, published 2022):

How the values were obtained:
[1] = Dynamic PET scan of [18F]-YJH08, time activity curves; assay type: in vivo, mouse; conditions: two phase exponential decay fit; C57B16/J mice
Method: To understand the biodistribution of [18F]-YJH08 in vivo, a dynamic PET scan over 60 min was first conducted in immunocompetent male C57B16/J mice (FIG. 3A). Prior to injection, the formulated dose of [18F]-YJH08 was passed through a sterile 0.22 μm membrane. Approximately 300 μCi was injected via tail vein in a volume of 100-150 μL per mouse. After a given period of uptake time, the mice were anesthetized with 2-3% isoflurane, and imaged with a Siemens Inveon micro PET/CT. For dynamic acquisitions, the mice were anesthetized prior to injection, and injected while positioned on the scanner bed. All imaging data was decay corrected, reconstructed, and analyzed with AMIDE software. Maximum intensity projections (MIPs) were generated by AMIDE software. Regions of interest (ROI) were manually placed to calculate SUV data from the dynamic acquisitions.
First, the radiotracer rapidly cleared from serum, and fitting the data with a two phase exponential decay curve estimated the fast and slow half-lives to be ˜21 sec and ˜760 sec, respectively. Moreover, liver uptake was prominent at very early time points post injection (0-300 sec), with continuous washout from ˜300-3600 sec.

PC3 tumors = test: [18F]-YJH08 uptake in PC3 tumors implanted in the renal capsule; assay type: in vivo, mouse; conditions: renal capsule implant, nu/nu mice
Method: For tumor imaging studies, male nu/nu mice were used for the renal capsule tumor implants. The mice were anesthetized with isofluorane (2-3%) and performed with a dorsal midline incision (0.5 cm). With pressure applied on the muscle wall, one kidney was pulled gently and carefully through the small incision. PC3 cells ([…] in 50 μL PBS) were injected under the kidney capsule, which was lifted from the kidney parenchyma. The kidney was placed into the mouse, and the incision closed with 3 surgical sutures. Carprofen (5-10 mg/kg) was administered to the mice during recovery. Mice were observed carefully over 24 hours for the signs of post-operative bleeding, pain and (or) other complications. After surgery, a 14 T Agilent small animal MRI was used to monitor the tumor progression. Animals were studied approximately 10 days post injection of tumor cells.
Lastly, digital autoradiography of the affected kidney was applied to define relative uptake of the radiotracer in the tumor and normal kidney parenchyma (FIGS. 5B and 5C). The radiotracer uptake in the tumor was qualitatively much higher than the level observed in the kidney.

[2] = blood collected 30 minutes post injection
Method: Serum Stability Studies. Mice were euthanized, received radiotracer (30 MBq in 100-150 μL formulation) via tail injection, and dissected at dedicated time points post injection. The blood was collected and an aliquot (50 uL) was mixed with CH3CN (50 uL). The serum proteins were precipitated out and followed by a centrifugation (10000 rpm for 5 min). The cleared supernatant (50 uL) was collected and further analyzed by RAD-iTLC.
To confirm stability, blood was collected at 30 minutes post injection, a time point after which specific binding in vivo with (±)—^18F-YJH08 occurred.

full length human MR = biological target: T1, full length human MR (Homo sapiens, UniProt P08235); test: 3H-ligand displacement assay on cells, MR (HEK293 overexpressing MR); assay type: binding
T1 construct: HEK293 transiently overexpressing full length human MR; expressed in transfected cells; host or cells: HEK293
T1 sequence (P08235 1-984): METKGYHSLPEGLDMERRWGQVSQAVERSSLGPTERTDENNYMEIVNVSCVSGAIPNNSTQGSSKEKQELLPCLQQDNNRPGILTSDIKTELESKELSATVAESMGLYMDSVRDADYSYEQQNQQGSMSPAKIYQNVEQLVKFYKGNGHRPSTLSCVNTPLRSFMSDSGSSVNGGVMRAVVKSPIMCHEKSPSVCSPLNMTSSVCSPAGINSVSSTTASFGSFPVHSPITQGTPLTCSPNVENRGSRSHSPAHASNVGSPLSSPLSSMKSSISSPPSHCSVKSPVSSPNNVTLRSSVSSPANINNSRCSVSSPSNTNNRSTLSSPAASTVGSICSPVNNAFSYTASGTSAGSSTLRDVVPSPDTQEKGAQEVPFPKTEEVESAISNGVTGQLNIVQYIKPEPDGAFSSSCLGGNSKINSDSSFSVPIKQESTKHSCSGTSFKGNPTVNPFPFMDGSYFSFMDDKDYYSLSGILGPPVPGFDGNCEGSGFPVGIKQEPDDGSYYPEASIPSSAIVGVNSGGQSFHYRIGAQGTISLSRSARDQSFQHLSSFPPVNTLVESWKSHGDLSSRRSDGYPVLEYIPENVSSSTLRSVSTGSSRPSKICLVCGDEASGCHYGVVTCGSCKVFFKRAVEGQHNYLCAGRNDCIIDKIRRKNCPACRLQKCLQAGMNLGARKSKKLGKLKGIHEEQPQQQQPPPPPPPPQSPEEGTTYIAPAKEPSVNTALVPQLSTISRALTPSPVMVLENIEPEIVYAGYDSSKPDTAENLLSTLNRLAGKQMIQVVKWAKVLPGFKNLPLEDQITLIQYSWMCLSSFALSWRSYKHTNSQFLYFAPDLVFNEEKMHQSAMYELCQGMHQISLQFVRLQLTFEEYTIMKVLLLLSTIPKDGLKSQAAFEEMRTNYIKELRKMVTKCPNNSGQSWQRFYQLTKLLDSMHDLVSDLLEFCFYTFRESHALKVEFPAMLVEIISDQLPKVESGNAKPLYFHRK
Method: The affinity of YJH08 for GR and the other type 1 subfamily 3 nuclear hormone receptors was evaluated using ^3H-ligand displacement assays on cells. The Kd for subfamily 3 class C nuclear hormone receptors was determined on cells by displacing ^3H-steroidal agonists for the respective receptor. […] The Kd was determined using the following cell lines: DU145 (GR), LNCaP-AR (AR), MCF7 (PR, ER), and HEK293 transiently overexpressing full length human MR.
The cold ligands and ^3H-steroids were co-incubated on cells in PBS at room temperature for one hour. Following incubation, the cells were washed twice with ice cold PBS and the unbound activity was retained for analysis. The cells were lysed with 1 mL of 1M NaOH and collected. Bound and unbound fractions were counted in a liquid scintillation counter and expressed as a percentage of the total activity added per equal relative number of cells. […] These experiments were performed at three concentrations of experimental ligand (1 pM, 100 nM and 10 μM), and a linear extrapolation was used to subtract the non-specific component of binding from each treatment condition. The specific binding component was plotted against the log of the competing ligand and curve fit using a non-linear regression algorithm with PRISM software.

Structure (SMILES): COc1cccc2c1-c1ccc3c(c1C(Cc1ccc([18F])cc1)O2)C(C)=CC(C)(C)N3 (racemic) [[18F]-YJH08, [^18F]-5-(4-fluorobenzyl)-10-methoxy-2,2,4-trimethyl-2,5-dihydro-1H-chromeno[3,4-f]quinoline]
- serum clearance fast half-life [1]: ~0.35 min
- serum clearance slow half-life [1]: ~12.7 min
- radiotracer uptake in PC3 tumor (PC3 tumors): ~3 % ID/g

Structure (SMILES): CC1=CC(C)(C)Nc2ccc3c(c21)C(Cc1ccc(F)cc1)Oc1cccc(O[11CH3])c1-3 (racemic) [(±)-^11C-YJH08]
- radiotracer stable in blood (ITLC) [2]: > 90%

Structure (SMILES): COc1cccc2c1-c1ccc3c(c1C(Cc1ccc(F)cc1)O2)C(C)=CC(C)(C)N3 (racemic) [YJH08, 5-(4-fluorobenzyl)-10-methoxy-2,2,4-trimethyl-2,5-dihydro-1H-chromeno[3,4-f]quinoline]
- Kd (full length human MR): 290 nM
